What was measured:
[1] = test system: Male Wistar albino rats, alcohol induced sub-acute hepatotoxicity; experiment: Alcohol induced sub-acute hepatotoxicity in rats: evaluation of hepato-protective activity (% protection, % synergism); assay type: in vivo
Source text: • 1. Hepato-protection: the ability to reduce stress and prevent damage to the liver. • 2. Synergistic hepato-protective effect: where the net hepato-protective effect of a combination is greater than the sum of the hepato-protective effects of the parts. • 3. Primary hepato-protective agent; 18α-Glycyrrhizin, 18β-Glycyrrhizin, or a combination thereof. • 4. Complimentary hepato-protective agent: sugar, sugar alcohol, or a combination thereof. • 5. Effective amount: the amount of each hepato-protective agent that must be included in a beverage to result in a net hepato-protective synergistic effect. Effective amounts include: • a. For 18α-Glycyrrhizin, a mass concentration range of 0.04% to 1.0%. • b. For 18β-Glycyrrhizin, a mass concentration range of 0.04% to 1.0%. • c. For sugar, a mass concentration range of 0.5% to 3.5%. • d. For sugar alcohol, a mass concentration range of 0.5% to 3.5%. • 6. Effective proportion: the proportional amount of how many units of complimentary hepato-protective agent should be added per unit of primary hepato-protective agent to result in a hepato-protective synergistic effect. An effective proportion is in the range of 1:2 to 175:2 (units of complimentary hepato-protective agent to units of primary hepato-protective agent). […] All animal experiments were conducted for a period of one month by per oral administration of 2.5 g/kg dose of alcohol.
The following tables 10 and 11 further illustrate hepatoprotective activity of the supplied alcoholic formulations in comparison with standard alcoholic drink in rat model, when fed orally for 4 weeks and also illustrate any synergistic effect of the ingredients. Hepatoprotection (HP) Calculation % Protection=1−[(T-NS)/(AL-NS)]×100 T=Mean value of drug treated, NS=Mean value of normal control, AL=Mean value of alcohol alone
Distilled ethanol was obtained from Bengal Chemicals, West Bengal, India, Biochemical kits like AST, ALT, ALKP and total protein were obtained from Span Diagnostics Ltd. Surat, India. Time course study of oxidative and nitrosative stress and antioxidant enzymes in K2Cr2O7-induced nephrotoxicity. BMC Nephrol., 6:4], TNF-α was estimated by standard procedures as mentioned in Rat TNF-α ELIS A kit (BioLegend, Inc. San Diego, Calif. USA).
Male Wistar albino rats weighing 150-200 g are procured from local registered traders (CPCSEA Regd No. 1443/po/6/4/CPCSEA), Kolkata, India, and were acclimatized for 7 days at standard housing condition (26° C.±2° C., 60-70% RFT with 12±1 hours light and dark cycle). Animals were fed with commercially available diet (Upton India Pvt. Ltd, India) and water ad-libitum during the experiment period.
Male Wistar albino rats weighing 150-200 g are procured and randomly divided into groups consisting of six animals in each group. Sub-acute toxicity is induced by alcohol in rats by oral administration of 25% alcohol (2.5 gm/kg/day, p.o.) for 28 days and this group served as the negative control and the positive control group received distilled water only.
All drug solutions were prepared in 15-40% aqueous alcohol, adjusting the pH in the range of 4.0-9.0 for evaluation of hepato-protective activity. This solution is further diluted with distilled water to obtain 25% aqueous alcoholic solution and administered orally by gavage to different rats group of step (a).
On day 28th day the animals are anaesthetized with ether and blood samples are collected by cardiac puncture and the serum is used for the assay of marker enzymes serum alanine aminotransferase (ALT), aspartate aminotransferase (AS′T), alkaline phosphatase (ALP). The rats are sacrificed by exposure to an overdose of ether, immediately after the collection of blood; their livers are removed, washed in cold saline. Part of the liver is used for preparation of liver homogenate in phosphate buffer (pH 7.4). […]

[2] = test system: superoxide dismutase (SOD); settings: erythritol-added group; cited from earlier work
[3] = cited from earlier work
[4] = sugar alcohol or sugar alone at 1%, alcohol 2.5 g/kg p.o. one month
[5] = sugar alcohol or sugar alone at 2.5%, alcohol 2.5 g/kg p.o. one month

Compound | ALT etc % Prot. [1, 4] | GSH % Prot. [1, 4] | MDA % Prot. [1, 4] | SOD etc % Prot. [1, 4] | TNF-α % Prot. [1, 4] | ALT etc % Prot. [1, 5] | GSH % Prot. [1, 5] | MDA % Prot. [1, 5] | SOD etc % Prot. [1, 5] | TNF-α % Prot. [1, 5] | other results
18β-Glycyrrhizin [Sample Code D] |  |  |  |  |  |  |  |  |  |  | TNF-α % Prot. ([1]; alcohol 2.5 g/kg/day p.o. 28 days, composition fixed by sample/example, listed as Example 4): 7.64%; GSH % Prot. ([1]; alcohol 2.5 g/kg/day p.o. 28 days, liver homogenate, composition fixed by sample/example, listed as Example 4): 3.29%; MDA % Prot. ([1]; hepatic MDA, alcohol 2.5 g/kg/day p.o. 28 days, composition fixed by sample/example, listed as Example 4): 15.97%; SOD etc % Prot. ([1]; mean of SOD, CAT and GPx, alcohol 2.5 g/kg/day p.o. 28 days, composition fixed by sample/example, listed as Example 4): 11.45%; ALT etc % Prot. ([1]; mean of serum ALT, AST and ALKP, alcohol 2.5 g/kg/day p.o. 28 days, composition fixed by sample/example, listed as Example 4): 8.38%
OC[C@@H](O)[C@@H](O)CO [Ery, D-Erythritol] | 17.84% | 18.71% | 24.71% | 17.94% | 16.57% | 32.13% | 37.29% | 48.61% | 36.29% | 35.96% | 
OC[C@H]1O[C@@H](O[C@H]2[C@H](O)[C@@H](O)C(O)O[C@@H]2CO)[C@H](O)[C@@H](O)[C@H]1O (stereo partly drawn) [Lac, Lactose] | 8.21% | 4.36% | 7.70% | 6.78% | 8.19% | 17.41% |  | 21.47% | 17.38% | 15.26% | 
OC[C@@H](O)[C@@H](O)[C@H](O)[C@H](O)CO [Sample Code A, D-Mannitol] |  |  |  |  |  |  |  |  |  |  | TNF-α % Prot. ([1]; alcohol 2.5 g/kg/day p.o. 28 days, composition fixed by sample/example, listed as Example 2): 7.19%; GSH % Prot. ([1]; alcohol 2.5 g/kg/day p.o. 28 days, liver homogenate, composition fixed by sample/example, listed as Example 2): 10.35%; MDA % Prot. ([1]; hepatic MDA, alcohol 2.5 g/kg/day p.o. 28 days, composition fixed by sample/example, listed as Example 2): 19.17%; SOD etc % Prot. ([1]; mean of SOD, CAT and GPx, alcohol 2.5 g/kg/day p.o. 28 days, composition fixed by sample/example, listed as Example 2): 12.71%; ALT etc % Prot. ([1]; mean of serum ALT, AST and ALKP, alcohol 2.5 g/kg/day p.o. 28 days, composition fixed by sample/example, listed as Example 2): 12.26%
OC[C@@H](O)[C@@H](O)[C@H](O)[C@H](O)CO [Sample Code C, D-Mannitol] |  |  |  |  |  |  |  |  |  |  | TNF-α % Prot. ([1]; alcohol 2.5 g/kg/day p.o. 28 days, composition fixed by sample/example, listed as 3): 16.74%; TNF-α % Prot. ([1]; alcohol 2.5 g/kg/day p.o. 28 days, composition fixed by sample/example, listed as Example 3): 31.46%; GSH % Prot. ([1]; alcohol 2.5 g/kg/day p.o. 28 days, liver homogenate, composition fixed by sample/example, listed as 3): 20.06%; GSH % Prot. ([1]; alcohol 2.5 g/kg/day p.o. 28 days, liver homogenate, composition fixed by sample/example, listed as Example 3): 31.53%; MDA % Prot. ([1]; hepatic MDA, alcohol 2.5 g/kg/day p.o. 28 days, composition fixed by sample/example, listed as 3): 31.63%; MDA % Prot. ([1]; hepatic MDA, alcohol 2.5 g/kg/day p.o. 28 days, composition fixed by sample/example, listed as Example 3): 50.80%; SOD etc % Prot. ([1]; mean of SOD, CAT and GPx, alcohol 2.5 g/kg/day p.o. 28 days, composition fixed by sample/example, listed as 3): 19.32%; SOD etc % Prot. ([1]; mean of SOD, CAT and GPx, alcohol 2.5 g/kg/day p.o. 28 days, composition fixed by sample/example, listed as Example 3): 35.83%; ALT etc % Prot. ([1]; mean of serum ALT, AST and ALKP, alcohol 2.5 g/kg/day p.o. 28 days, composition fixed by sample/example, listed as 3): 70.37%; ALT etc % Prot. ([1]; mean of serum ALT, AST and ALKP, alcohol 2.5 g/kg/day p.o. 28 days, composition fixed by sample/example, listed as Example 3): 29.71%
OC[C@H]1O[C@@](CO)(O[C@H]2O[C@H](CO)[C@@H](O)[C@H](O)[C@H]2O)[C@@H](O)[C@@H]1O [Suc, Sucrose] | 6.70% | 6% | 8.27% | 5.16% | 6.13% | 13.89% | 11.63% | 18.92% | 10.49% | 14.18% | 
OC[C@@H](O)[C@H](O)[C@@H](O)CO [Xyl, D-Xylitol] | 17.62% | 19.76% | 26.9% | 18.91% | 15.77% | 26.72% | 35.57% | 45.38% | 36.88% | 30.05% | 
O=C[C@H](O)[C@@H](O)[C@H](O)CO [Xyls, Xylose] | 8.06% | 6.23% | 6.28% | 7.83% | 6.44% | 14.73% | 11.84% | 15.38% | 19.1% | 13.98% | 
OC[C@@H](O)[C@@H](O)CO [erythritol] |  |  |  |  |  |  |  |  |  |  | increase of SOD activity [2]: 2-5 times
CCO [ethanol] |  |  |  |  |  |  |  |  |  |  | time to peak blood alcohol concentration ([3]; fasting state): ≤ 30 min; ingested alcohol degraded to acetaldehyde ([3]; human being): 95%; ingested alcohol excreted unchanged ([3]; human being): 5%; share of alcohol metabolism accounted for by liver ([3]; in vivo): ~90%; alcohol metabolized per hour ([3]; typical adult, printed 'g of alcohol, hour'): 7 to 10 g

— patent publication US10039776B2, “Hepato-protective beverage composition” (priority 2013, dated 2018)
